Active and inactive are the calls of the source. The rule behind the calls is not given here.
Test system: HEK-293T NF-kB-Luc cytotoxicity, resazurin fluorescence, 15 h
Assay: HEK-293T viability loss, cell-based, uHTS hits, cytotoxicity control for B/T-cell NF-kB inhibitor project, dose response (AID 489019)

For CC(=O)OC[C@]12CCC(C)=C[C@H]1O[C@@H]1[C@H](O)[C@@H](OC(C)=O)[C@@]2(C)[C@]12CO2, the IC50 was > 80 µM (inactive).

Source: PubChem BioAssay AID489019 (Sanford-Burnham Center for Chemical Genomics, 2010)
